Results taken from ChEMBL document CHEMBL1201862, “PubChem BioAssay data set” (2004).
Values joined by “and” are separate entries in the source; they are usually repeats but may differ in a detail not shown here. Identical values can stand only once. Counter-ions that a name gives are not always drawn. Active and inactive are the calls of the source.

Experiments:
[1] = target: Protein-arginine deiminase type-4 (Homo sapiens, UniProt Q9UM07); assay: IC50 against protein arginine deiminase 4 – biochemical, fluorescence readout, dose response (AID 492970)
Troponin, cardiac muscle = Troponin, cardiac muscle (Homo sapiens, UniProt P19429+P45379+P63316); assay: Fluorescence-based biochemical high throughput dose response assay for activators of the calcium sensitivity of cardiac Regulated Thin Filaments (RTF). [Related pubchem assays (depositor defined):AID493008, AID493018, AID504382, AID504383]; type: protein-complex assay
[2] = target: T1, E3 ubiquitin-protein ligase XIAP (Homo sapiens, UniProt P98170); assay: small molecules displacing peptide from XIAP – biochemical, IAP family, fluorescence polarization (AID 1018); type: functional
[3] = target: T1, E3 ubiquitin-protein ligase XIAP; assay: Counter Screen using XIAP-Bir3 for Chemical Antagonists of Bir1/2 domains of IAP-family anti-apoptotic proteins. [Related pubchem assays (depositor defined):AID1018, AID1449, AID1514, AID1638, AID1749, AID1750, AID488957, AID488963]
Cannabinoid receptor 2 [4] = target: T2, Cannabinoid receptor 2 (Homo sapiens, UniProt P34972); assay: SAR analysis of agonists of the Cannabinoid Receptor 2 using an Image-Based Assay - Set 2. [Related pubchem assays (depositor defined):AID1961, AID1965]; type: functional
[5] = target: T3, G-protein coupled receptor 35 (Homo sapiens, UniProt Q9HC97); assay: SAR analysis of Agonists of the GPR35 Receptor using an Image-Based Assay - Set 3. [Related pubchem assays (depositor defined):AID1961, AID1965]; type: functional
Cannabinoid receptor 2 [6] = target: T2, Cannabinoid receptor 2; assay: SAR analysis of antagonists of the Cannabinoid Receptor 2 using an Image-Based Assay - Set 2. [Related pubchem assays (depositor defined):AID1961, AID1965]; type: functional
Cannabinoid receptor 1 [7] = target: T4, Cannabinoid receptor 1 (Homo sapiens, UniProt P21554); assay: SAR analysis of antagonists of the Cannabinoid Receptor 1 using an Image-Based Assay - Set 3. [Related pubchem assays (depositor defined):AID1961, AID1965]; type: functional
Cannabinoid receptor 1 [8] = target: T4, Cannabinoid receptor 1; assay: SAR analysis of agonists of the Cannabinoid Receptor 1 using an Image-Based Assay - Set 3. [Related pubchem assays (depositor defined):AID1961, AID1965]; type: functional
[9] = target: G-protein coupled receptor 55 (Homo sapiens, UniProt Q9Y2T6); assay: SAR analysis of selective Agonists of GPR55 using an Image-Based Assay - Set 2. [Related pubchem assays (depositor defined):AID1961, AID1965]; type: functional
[10] = target: T3, G-protein coupled receptor 35; assay: SAR analysis of Antagonists of the GPR35 Receptor using an Image-Based Assay - Set 4. [Related pubchem assays (depositor defined):[…]]; type: functional
Coagulation factor XII = target: T5, Coagulation factor XII (Homo sapiens, UniProt P00748); assay: activated coagulation factor XII inhibitor potency, concentration-effect curve, cell-free (AID 716); type: functional
T5 sequence (P00748 whole entry): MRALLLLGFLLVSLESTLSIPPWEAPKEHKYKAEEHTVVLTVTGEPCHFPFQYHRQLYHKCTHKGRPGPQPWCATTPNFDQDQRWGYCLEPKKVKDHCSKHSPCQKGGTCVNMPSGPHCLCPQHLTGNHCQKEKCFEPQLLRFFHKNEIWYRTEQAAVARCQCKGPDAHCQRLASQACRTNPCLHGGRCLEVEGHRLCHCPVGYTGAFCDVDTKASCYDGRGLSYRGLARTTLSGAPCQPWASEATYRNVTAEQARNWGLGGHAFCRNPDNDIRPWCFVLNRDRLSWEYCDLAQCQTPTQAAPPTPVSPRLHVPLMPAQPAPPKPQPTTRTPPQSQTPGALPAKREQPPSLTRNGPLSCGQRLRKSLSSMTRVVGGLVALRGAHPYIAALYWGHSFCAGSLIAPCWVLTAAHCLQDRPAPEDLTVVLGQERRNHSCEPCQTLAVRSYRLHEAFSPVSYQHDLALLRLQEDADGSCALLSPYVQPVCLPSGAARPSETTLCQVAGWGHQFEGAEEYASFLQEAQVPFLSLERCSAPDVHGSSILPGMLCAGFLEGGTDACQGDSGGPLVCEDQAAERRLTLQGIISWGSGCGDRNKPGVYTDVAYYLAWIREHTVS

[11] = target: T6, DNA dC->dU-editing enzyme APOBEC-3G (Homo sapiens, UniProt Q9HC16); type: functional
[12] = target: DNA dC->dU-editing enzyme APOBEC-3A (Homo sapiens, UniProt P31941); assay: Dose Response confirmation of small molecule APOBEC3A DNA Deaminase Inhibitors via a fluorescence-based single-stranded DNA deaminase assay. [Related pubchem assays (depositor defined):AID493011, AID493024]; type: functional
[13] = target: T7, Runt-related transcription factor 1/Core-binding factor subunit beta (Homo sapiens, UniProt Q01196+Q13951); assay: Confirmation of compounds inhibiting the binding between the RUNX1 Runt domain and CBFb-SMMHC via a time resolved fluorescence resonance energy transfer (TR-FRET) assay. [Related pubchem assays (depositor defined):AID1434, AID1438, AID1496, AID1560, AID1645]; type: protein assay
Large T antigen = Large T antigen (Simian virus 40, UniProt P03070); type: functional, Betapolyomavirus macacae;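 note: Confirmatory-stage PubChem screen for compounds that inhibit SV40 T antigen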
[14] = target: Glutathione-S-transferase (Schistosoma japonicum, UniProt Q26513); assay: GST-antibody interaction or FRET quenching – biochemical, TR-FRET, artefact control for Vif-APOBEC3G degradation inhibitor project, dose response (AID 1117362); type: functional
[15] = target: T8, Zinc finger protein mex-5 (Caenorhabditis elegans, UniProt Q9XUB2); assay: potency of MEX-5 RNA-binding blockers – biochemical, C. elegans, fluorescence polarization, dose response (AID 1960)
T8 sequence (Q9XUB2 whole entry): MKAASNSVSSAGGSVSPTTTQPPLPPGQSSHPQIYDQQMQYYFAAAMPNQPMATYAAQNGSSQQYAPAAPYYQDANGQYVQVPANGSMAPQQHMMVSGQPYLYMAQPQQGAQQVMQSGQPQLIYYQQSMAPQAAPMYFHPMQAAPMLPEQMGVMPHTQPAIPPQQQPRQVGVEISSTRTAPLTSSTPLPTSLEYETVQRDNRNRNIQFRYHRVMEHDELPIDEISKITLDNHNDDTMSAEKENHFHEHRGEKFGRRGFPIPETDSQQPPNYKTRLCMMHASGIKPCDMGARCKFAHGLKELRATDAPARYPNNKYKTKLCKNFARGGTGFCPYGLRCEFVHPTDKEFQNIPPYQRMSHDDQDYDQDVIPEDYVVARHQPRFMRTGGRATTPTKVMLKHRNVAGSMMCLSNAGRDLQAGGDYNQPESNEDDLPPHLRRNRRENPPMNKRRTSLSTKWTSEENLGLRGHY

[16] = target: Eukaryotic translation initiation factor 4E (Mus musculus, UniProt P63073); assay: blockers of eIF4G binding by eIF4E – biochemical, TR-FRET, dose response (AID 855); type: functional;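 note: potency for disrupting eIF4E binding to eIF4GI seen as loss of FRET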
[17] = target: T7, Runt-related transcription factor 1/Core-binding factor subunit beta; assay: disruptors of Runt domain/CBFb-SMMHC interaction – biochemical, FRET, Cerulean-Runt, Venus-CBFb-SMMHC, uHTS, […] (AID 1434); type: protein assay
[18] = target: T9, DNA repair protein RAD52 homolog (Homo sapiens, UniProt P43351); type: functional, biochemical
T9 sequence (P43351 whole entry): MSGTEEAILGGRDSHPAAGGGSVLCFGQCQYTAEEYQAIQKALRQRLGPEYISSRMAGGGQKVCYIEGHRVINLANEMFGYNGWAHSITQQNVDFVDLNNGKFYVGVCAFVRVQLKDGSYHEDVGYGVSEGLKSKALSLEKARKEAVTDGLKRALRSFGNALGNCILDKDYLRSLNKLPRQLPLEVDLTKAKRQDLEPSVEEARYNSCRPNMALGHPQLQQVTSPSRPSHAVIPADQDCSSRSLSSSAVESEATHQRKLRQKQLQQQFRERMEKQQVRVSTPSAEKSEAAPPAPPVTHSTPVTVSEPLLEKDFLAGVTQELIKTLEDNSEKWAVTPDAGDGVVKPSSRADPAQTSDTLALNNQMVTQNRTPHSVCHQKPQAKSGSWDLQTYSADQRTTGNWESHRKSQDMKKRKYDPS

[19] = target: T10, RNA-binding protein pos-1 (Caenorhabditis elegans, UniProt G5EF15); assay: disruptors of C. elegans POS-1 RNA interaction – biochemical, fluorescence polarization, dose response (AID 1964);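 note: purified POS-1 fused to maltose binding protein made in E. coli; potency of compounds blocking POS-1 binding to fluorescent RNA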
T10 sequence (G5EF15 whole entry): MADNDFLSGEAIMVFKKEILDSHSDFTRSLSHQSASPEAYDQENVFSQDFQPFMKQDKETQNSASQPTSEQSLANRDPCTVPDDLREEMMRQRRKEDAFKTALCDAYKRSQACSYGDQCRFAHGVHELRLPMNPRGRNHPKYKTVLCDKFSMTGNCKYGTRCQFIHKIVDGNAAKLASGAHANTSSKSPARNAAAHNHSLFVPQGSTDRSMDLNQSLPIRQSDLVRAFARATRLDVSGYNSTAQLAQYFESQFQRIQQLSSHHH

[20] = target: Glucose-6-phosphate 1-dehydrogenase (Homo sapiens, UniProt P11413); assay: inhibition of Homo sapiens G6PD, dose series – biochemical, fluorescence, selectivity assay for P. falciparum G6PD inhibitor project, dose response (AID 504792); type: functional
[21] = target: T11, Mannose-6-phosphate isomerase (Homo sapiens, UniProt P34949); assay: MPI inhibition at elevated mannose 6-phosphate – biochemical, fluorescence intensity, high mannose 6-phosphate, primary screen (AID 1220)
T11 sequence (P34949 whole entry): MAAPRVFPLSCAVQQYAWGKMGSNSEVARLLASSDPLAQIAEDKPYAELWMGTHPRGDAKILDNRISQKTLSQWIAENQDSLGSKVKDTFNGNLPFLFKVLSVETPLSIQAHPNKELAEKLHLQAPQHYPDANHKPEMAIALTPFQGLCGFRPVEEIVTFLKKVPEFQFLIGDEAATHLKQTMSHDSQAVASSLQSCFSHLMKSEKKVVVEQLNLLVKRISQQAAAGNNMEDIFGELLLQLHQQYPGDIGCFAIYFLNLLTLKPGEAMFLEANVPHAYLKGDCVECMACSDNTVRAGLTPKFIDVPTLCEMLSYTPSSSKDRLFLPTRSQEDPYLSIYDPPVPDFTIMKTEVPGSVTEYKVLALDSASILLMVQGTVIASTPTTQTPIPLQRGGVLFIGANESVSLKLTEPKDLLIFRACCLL

Mu-type opioid receptor = Mu-type opioid receptor (Homo sapiens, UniProt P35372); type: functional, cell-based;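 note: U2OS cells with beta-arrestin recruitment to OPRM1 by beta-gal complementation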
[22] = viability loss in THP-1 monocytes – THP-1 cells, cytotoxicity control for Vif-APOBEC3G degradation inhibitor project, dose response (AID 1117359); type: functional; details: THP-1
[23] = target: T6, DNA dC->dU-editing enzyme APOBEC-3G; assay: Dose Response confirmation of small molecule APOBEC3G DNA Deaminase Inhibitors via a fluorescence-based single-stranded DNA deaminase assay. [Related pubchem assays (depositor defined):AID493012, AID493028]; type: functional
[24] = target: 5-hydroxytryptamine receptor 2A (Mus musculus, UniProt P35363); type: functional, cell-based;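 note: CHO-K1 cells with tagged receptor and beta-arrestin; agonist potency measured as compound-induced activation of the receptor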
[25] = target: T7, Runt-related transcription factor 1/Core-binding factor subunit beta; assay: Confirmation of compounds inhibiting the binding between the RUNX1 Runt domain and CBFb-SMMHC via a fluorescence resonance energy transfer (FRET) assay. [Related pubchem assays (depositor defined):AID1434, AID1438, AID1496, AID1550, AID1645]; type: protein assay
[26] = target: T7, Runt-related transcription factor 1/Core-binding factor subunit beta; assay: Runt domain/CBFb-SMMHC interaction disruptors – biochemical, TR-FRET (AID 1438); type: protein assay
[27] = target: Induced myeloid leukemia cell differentiation protein Mcl-1 (Homo sapiens, UniProt Q07820); type: functional

## O=C1NCC2=C1C(c1ccccc1)Nc1ccccc1N2 (stereo unspecified)
[1]
  IC50: > 100 µM (inactive)

## O=C(/C=C/c1nc2ccccc2s1)N1CCCCCC1
Troponin, cardiac muscle
  EC50: > 71.5 µM (inactive)

## COc1ccc(NC(=O)Cc2ccc(C)cc2)c([N+](=O)[O-])c1
[2]
  IC50: > 100 µM (not active)
[3]
  IC50: > 100 µM (inactive)

## CCOc1ccccc1N1CCN(C(=O)c2cc(S(=O)(=O)N(C)C)ccc2N2CCCC2)CC1
Cannabinoid receptor 2 [4]
  EC50: > 32 µM (inactive)
[5]
  EC50: > 32 µM (inactive)
Cannabinoid receptor 2 [6]
  IC50: > 32 µM (inactive)
Cannabinoid receptor 1 [7]
  IC50: > 32 µM (inactive)
Cannabinoid receptor 1 [8]
  EC50: > 32 µM (inactive)
[9]
  EC50: > 32 µM (inactive)
[10]
  IC50: > 32 µM (inactive)

## O=C(O)COc1ccc2c(c1)OCCO2
Coagulation factor XII
  IC50: > 50 µM (inactive)

## CCc1ccc(OCC(=O)N/N=C\c2ccco2)c([N+](=O)[O-])c1
[11]
  IC50: 39.8 µM (active)
[12]
  IC50: 18.6 µM (active)

## CN1CCc2cccc3c2[C@H]1Cc1ccc(O)c(O)c1-3 [APOMORPHINE HYDROCHLORIDE]
[13]
  IC50: 18.9 µM (active)
Large T antigen
  IC50: > 100 µM (active) and 15.3 µM (active)
[14]
  IC50: 74.8 µM (active)
[15]
  EC50: 4.42 µM (active)
[16]
  IC50: > 64 µM (inactive)
[17]
  IC50: 9.66 µM (active)
[18]
  AC50: 7.1 µM (active)
[19]
  EC50: 16.9 µM (inconclusive)
[20]
  IC50: 34.6 µM (inactive)
[21]
  IC50: 14.6 µM (active)
Mu-type opioid receptor
  EC50: 92.5 µM (inactive) and 92.4 µM (inactive)
[22]
  CC50: 16.9 µM (active)
[23]
  IC50: 26.2 µM (active)
[24]
  EC50: 6.41 nM (active) and 8.15 nM (active)
[25]
  IC50: 13.4 µM (active)
[26]
  IC50: 9.81 µM (active)
[27]
  IC50: 4.38 µM (active)
